“Also recorded” adds a separate entry of the source.
Tests used:
[1] = system: patients with presumed NASH and type 2 diabetes; experiment: Phase 2 randomized placebo-controlled trial, 18 weeks: liver fat content (MRI-PDFF), glycemic control, liver enzymes, lipids, body weight, fibrosis markers; format: in vivo, human
Text: The aim of this study was to determine the effect of two different doses of BUDCA on liver fat content (LFC) in patients with diabetes and presumed NASH when administered for 18 weeks. This phase 2 clinical trial tested the effect of BUDCA in patients with fatty liver disease and diabetes. The group taking the higher dose of this new drug had significant reductions in the amount of fat in their liver as well as improvement in their diabetes.
(§1) A prospective, randomized, placebo-controlled trial of two doses of BUDCA administered orally was conducted in a cohort of 100 subjects with fatty liver disease and diabetes. Treatment was for 18 weeks and endpoints measured included reduction in liver fat content measured by […] proton density fat fraction, improvement in glycemic control, changes in liver-associated enzymes, safety and tolerability.
(§2) Patients with diabetes and presumed NASH were randomized into one of three treatment groups, as follows: 1) BUDCA 500 mg BID 2) 1,000 mg BID and 3) matching placebo. Presumed NASH was defined based largely on magnetic resonance imaging derived proton density fat fraction (MRI-PDFF) of 10% or more. Additional inclusion criteria further enriched the study population for having NASH by virtue of requiring corrected T1 (cT1) of more than 830 milliseconds and elevated serum aspartate aminotransferase (AST)≥20 units per liter (6). Subjects had to be overweight or obese with body mass index of 25 kg/m^2 or more.
Study subjects underwent an initial screening evaluation, including measurement of LFC by MRI-PDFF. Subjects were excluded if they had known liver disease other than fatty liver disease or a history of excessive alcohol consumption. Although liver biopsies were not done as a part of this study, subjects with clear evidence of cirrhosis were excluded, based upon a platelet count of less than 150,000/mm^3, serum albumin levels less than […] or a current or previous history of clinical hepatic decompensation.
Those who were deemed eligible were then randomized into one of the three treatment groups described above and underwent a further baseline evaluation at the time of randomization and initial dosing. Subjects were permitted to continue their current treatment regimen for diabetes provided they had been on a stable dose regimen for at least 90 days.
LFC was measured at baseline and after 18 weeks of therapy. In addition, changes in liver chemistry tests, measures of glycemic control and serum lipid levels were also assessed during and at the end of treatment.
(§3) Descriptive Statistics were used to summarize continuous data, and frequencies and percentages were used to summarize categorical data. The Safety Set consisted of all subjects who received at least one dose of study treatment. The Modified Efficacy Set is a subset of the Safety Set consisting of subjects that had at least one post-dose MRI-PDFF assessment. […] The primary endpoint was an absolute change from Baseline to Week 18 (or ET) in Liver Fat Content. Primary Endpoint summary measures were provided in both the Efficacy and Modified Efficacy sets, with the Efficacy Set prespecified as the primary analysis set. All other endpoints were prespecified to use the Modified Efficacy Set. Comparisons between active treatment groups relative to placebo were tested using Analysis of Covariance (ANCOVA) with treatment group as a fixed effect and baseline value of the parameters of interest as covariates. ANCOVA based LS Means and raw means have been reported. For statistical analysis of laboratory parameters (i.e. P-values), multiple imputation was used to take missing data into account. A two-sided alpha level of 0.05 without adjustment for multiple tests was used to indicate statistical significance. Analyses were performed using SAS System version 9.4.
Effects of treatment with BUDCA on AST to Platelet Ratio Index (APRI) and Fibrosis-4 (FIB-4) were also measured.

[2] = system: patients with presumed NASH and type 2 diabetes; experiment: Phase 2 trial: adverse events, safety and tolerability; format: in vivo, human; conditions: for Subjects with TEAEs Related to Study Drug: Diarrhea, number (%) / Subjects with TEAEs Related to Study Drug: GERD, number (%) / Subjects with TEAEs Related to Study Drug: Nausea, number (%) / Subjects with TEAEs requiring discontinuation of study drug: Abdominal distension, number (%) / Subjects with TEAEs requiring discontinuation of study drug: Acute myocardial infarction, number (%) / Subjects with TEAEs requiring discontinuation of study drug: Diarrhea, number (%) / Subjects with TEAEs requiring discontinuation of study drug: GERD, number (%) / Subjects with TEAEs requiring discontinuation of study drug: Headache and Facial Rash, number (%) / Subjects with TEAEs requiring discontinuation of study drug: Melena, number (%): placebo 0; for Subjects with TEAEs Related to Study Drug: Headache, number (%) / Subjects with TEAEs requiring discontinuation of study drug: Bladder Cancer, number (%): placebo 1 (3%)
Procedure: as §1, §2, §3

## COc1ccc2cc3[n+](cc2c1OC)CCc1cc2c(cc1-3)OCO2.C[C@H](CCC(=O)[O-])[C@H]1CC[C@H]2[C@@H]3[C@@H](O)C[C@@H]4C[C@H](O)CC[C@]4(C)[C@H]3CC[C@]12C [BUDCA, berberine ursodeoxycholate]
[1]; 1,000 mg BID, 18 weeks, placebo 2.0%, p=0.011
  absolute LFC decrease, average: 4.8%
[1]; 1,000 mg BID, 18 weeks, placebo 7/33
  Proportion achieving ≥ 30% relative reduction in LFC (subjects/total): 10/30
[1]; 1,000 mg BID, 18 weeks, placebo 8/33
  Proportion achieving ≥ 5% Absolute Reduction in LFC (subjects/total): 12/30
[1]; 1,000 mg BID, 18 weeks, placebo 8.3%, p=0.016
  relative decrease in LFC: 24.1%
[1]; 1,000 mg BID, 18 weeks, placebo 21%
  Proportion achieving ≥ 30% relative reduction in LFC (percent): (33%)
[1]; 1,000 mg BID, 18 weeks, placebo 24%
  Proportion achieving ≥ 5% Absolute Reduction in LFC (percent): (40%)
[1]; 1,000 mg BID, 18 weeks, placebo increase of 0.1%
  decrease in mean HbA1c level: 0.6%
[1]; 1,000 mg, 18 weeks
  proportion of subjects showing improvements in APRI to thresholds associated with less severe fibrosis, vs placebo: approximately 2 fold
[1]; 1000 mg, 18 weeks
  proportion of subjects showing improvements in FIB-4 to thresholds associated with less severe fibrosis, vs placebo: approximately 4 fold
[1]; 1,000 mg, after 18 weeks (FIG. 6)
  reduction in APRI vs placebo: approximately 3 fold
[1]; 1000 mg, after 18 weeks (FIG. 7)
  reduction in FIB-4 vs placebo: approximately 3 fold
[1]; 18 weeks (FIG. 8)
  percentage of subjects achieving ALT reductions vs placebo: greater percentage
[1]; 18 weeks (FIG. 9)
  Pro-C3 vs placebo: No significant differences
  enhanced liver fibrosis (ELF) score vs placebo: No significant differences
[1]; BUDCA therapy, 18 weeks
  change in HOMA-IR: No significant changes
  change in level of HDL-c: no significant change
  change in level of blood glucose: No significant changes
  change in level of insulin: No significant changes
[1]; high dose group (1,000 mg BID), 18 weeks, P=0.072
  average decrease in level of LDL-c: 16 mg/dL
[2]; 500 mg BID and 1,000 mg BID, 18 weeks
  tolerability: generally well tolerated; also recorded: relatively well tolerated
[2]; 500 mg BID, N = 33
  Subjects with TEAEs Related to Study Drug: Diarrhea, number (%): 4 (12%)
  Subjects with TEAEs Related to Study Drug: GERD, number (%): 2 (6%)
  Subjects with TEAEs Related to Study Drug: Nausea, number (%): 1 (3%)
  Subjects with TEAEs requiring discontinuation of study drug: Abdominal distension, number (%): 0
  Subjects with TEAEs requiring discontinuation of study drug: Acute myocardial infarction, number (%): 0
  Subjects with TEAEs requiring discontinuation of study drug: Diarrhea, number (%): 0
  Subjects with TEAEs requiring discontinuation of study drug: GERD, number (%): 1 (3%)
  Subjects with TEAEs requiring discontinuation of study drug: Headache and Facial Rash, number (%): 0
  Subjects with TEAEs requiring discontinuation of study drug: Melena, number (%): 0
  Subjects with TEAEs Related to Study Drug: Headache, number (%): 2 (6%)
  Subjects with TEAEs requiring discontinuation of study drug: Bladder Cancer, number (%): 0
[2]; 1,000 mg BID, N = 34
  Subjects with TEAEs Related to Study Drug: Diarrhea, number (%): 9 (26%)
  Subjects with TEAEs Related to Study Drug: GERD, number (%): 0
  Subjects with TEAEs Related to Study Drug: Nausea, number (%): 5 (15%)
  Subjects with TEAEs requiring discontinuation of study drug: Abdominal distension, number (%): 1 (3%)
  Subjects with TEAEs requiring discontinuation of study drug: Acute myocardial infarction, number (%): 1 (3%)
  Subjects with TEAEs requiring discontinuation of study drug: Diarrhea, number (%): 2 (6%)
  Subjects with TEAEs requiring discontinuation of study drug: GERD, number (%): 1 (3%)
  Subjects with TEAEs requiring discontinuation of study drug: Headache and Facial Rash, number (%): 2 (6%)
  Subjects with TEAEs requiring discontinuation of study drug: Melena, number (%): 1 (3%)
  Subjects with TEAEs Related to Study Drug: Headache, number (%): 1 (3%)
  Subjects with TEAEs requiring discontinuation of study drug: Bladder Cancer, number (%): 0
[2]; 1,000 mg BID, one serious adverse event
  serious adverse event in the high dose group, relation to study drug: not related to the study drug

From patent publication US20230112845A1, “COMPOSITIONS OF BERBERINE URSODE[…] METHODS THEREOF FOR TREATING FATTY LIVER DISEASE, DIABETES AND HYPERLIPIDEMIA” (SHENZHEN HIGHTIDE BIOPHARMACEUTICAL LTD., priority 2020, published 2023)
